Assay results reported in patent publication US7994307B2, “RNAi modulation of the BCR-ABL fusion gene and uses thereof” (Alnylam Pharmaceuticals, Inc., priority 2004, dated 2011).
Entries after “also recorded” stand apart in the source; their conditions may differ. Structures can show the parent of a compound that is named as a salt.

What was measured:
32Dp210-H396P cells = experiment: Sensitivity to imatinib mesylate of 32Dp210-H396P cells; assay type: cell-based, murine; details: 32D cells expressing Bcr-Abl-H396P
32Dp210-T315I cells = experiment: Sensitivity to imatinib mesylate of 32Dp210-T315I cells; assay type: cell-based, murine; details: 32D cells expressing Bcr-Abl-T315I
K562 cells = details: 48 h treatment with imatinib mesylate alone (Wilda et al.); cited from earlier work
p210Bcr-Abl (e14a2) = experiment: Western blot of Bcr-Abl protein in 32Dp210/e14a2 cells after siRNA electroporation; assay type: cell-based, murine; details: 32Dp210Bcr-Abl (e14a2) cells
Sequence of p210Bcr-Abl (e14a2) (P11274+P00519 fused): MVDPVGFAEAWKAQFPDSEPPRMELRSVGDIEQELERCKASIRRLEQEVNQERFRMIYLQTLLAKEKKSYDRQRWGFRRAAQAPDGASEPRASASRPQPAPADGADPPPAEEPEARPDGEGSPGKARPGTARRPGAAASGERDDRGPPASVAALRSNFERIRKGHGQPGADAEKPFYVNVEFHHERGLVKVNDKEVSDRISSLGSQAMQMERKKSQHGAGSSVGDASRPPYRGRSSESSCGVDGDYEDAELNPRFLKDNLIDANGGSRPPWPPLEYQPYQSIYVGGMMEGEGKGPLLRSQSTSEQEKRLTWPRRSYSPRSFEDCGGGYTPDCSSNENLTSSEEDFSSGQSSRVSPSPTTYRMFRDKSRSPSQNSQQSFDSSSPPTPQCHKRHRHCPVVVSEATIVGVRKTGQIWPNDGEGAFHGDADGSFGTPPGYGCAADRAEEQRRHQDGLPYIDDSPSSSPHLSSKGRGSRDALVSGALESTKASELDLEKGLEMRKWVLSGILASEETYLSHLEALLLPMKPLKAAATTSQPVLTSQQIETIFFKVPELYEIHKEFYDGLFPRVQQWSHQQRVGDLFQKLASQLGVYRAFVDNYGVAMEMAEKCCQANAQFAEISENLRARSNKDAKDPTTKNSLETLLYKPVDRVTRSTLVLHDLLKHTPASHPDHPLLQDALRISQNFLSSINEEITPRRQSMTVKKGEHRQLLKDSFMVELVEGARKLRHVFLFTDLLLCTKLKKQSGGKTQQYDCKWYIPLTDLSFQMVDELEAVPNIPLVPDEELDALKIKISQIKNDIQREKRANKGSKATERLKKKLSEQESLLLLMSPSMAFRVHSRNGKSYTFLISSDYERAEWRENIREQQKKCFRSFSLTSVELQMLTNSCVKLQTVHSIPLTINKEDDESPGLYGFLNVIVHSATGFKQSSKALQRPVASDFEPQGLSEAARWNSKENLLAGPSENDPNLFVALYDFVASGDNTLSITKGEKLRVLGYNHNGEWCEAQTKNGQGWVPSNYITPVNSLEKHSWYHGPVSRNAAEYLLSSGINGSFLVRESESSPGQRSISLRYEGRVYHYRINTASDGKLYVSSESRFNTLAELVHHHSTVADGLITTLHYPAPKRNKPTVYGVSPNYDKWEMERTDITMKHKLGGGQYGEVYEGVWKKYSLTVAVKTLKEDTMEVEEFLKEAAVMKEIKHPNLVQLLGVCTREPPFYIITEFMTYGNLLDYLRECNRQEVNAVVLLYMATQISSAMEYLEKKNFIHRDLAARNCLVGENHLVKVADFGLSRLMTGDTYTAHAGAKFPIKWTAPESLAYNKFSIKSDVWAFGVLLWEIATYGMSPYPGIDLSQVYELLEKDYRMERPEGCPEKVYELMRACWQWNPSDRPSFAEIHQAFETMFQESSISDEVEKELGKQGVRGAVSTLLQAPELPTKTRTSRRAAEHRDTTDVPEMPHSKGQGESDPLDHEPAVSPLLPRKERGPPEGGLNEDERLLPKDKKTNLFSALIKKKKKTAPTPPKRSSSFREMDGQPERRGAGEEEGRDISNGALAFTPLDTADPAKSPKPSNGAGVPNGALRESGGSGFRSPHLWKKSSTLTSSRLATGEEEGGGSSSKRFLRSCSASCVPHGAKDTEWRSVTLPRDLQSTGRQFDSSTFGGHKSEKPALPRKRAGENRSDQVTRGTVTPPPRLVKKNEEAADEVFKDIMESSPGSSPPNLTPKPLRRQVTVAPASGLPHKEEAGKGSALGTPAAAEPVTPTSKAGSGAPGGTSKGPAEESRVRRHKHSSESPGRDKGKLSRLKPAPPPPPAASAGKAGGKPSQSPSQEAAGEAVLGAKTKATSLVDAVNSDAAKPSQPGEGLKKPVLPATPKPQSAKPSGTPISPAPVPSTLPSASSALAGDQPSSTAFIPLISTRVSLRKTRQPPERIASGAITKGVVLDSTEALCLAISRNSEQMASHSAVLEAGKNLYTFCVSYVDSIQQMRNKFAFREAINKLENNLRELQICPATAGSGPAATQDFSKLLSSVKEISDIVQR
Experimental: (§1) Protein assay: Western blot analysis was performed ˜24 h following the last siRNA -treatment or ˜96 hours following transfection with the pSUPER siRNA-expression vector as described (Goetz A W, et al., Cancer Res. 2001, 61:7635)
(§2) siRNA-transfection: siRNAs were transfected into the murine cell lines 32Dp210Bcr-Abl-e14a2, -e13a2, 32Dp190Bcr-Abl-e1a2 and the human leukemic cell line MEG-01 using electroporation. Cell density was adjusted to 2.5-5×10^6/ml in RPMI/10% FCS. 800 μl of this cell suspension were mixed with siRNA in a 4 mm electroporation cuvette. Cells were electroporated by means of an EasyJect electroporator (peqlab, Erlangen, Germany) using a single-pulse protocol (250 V, 1800 μF, 8.). This treatment was repeated in intervals of 24 hours as indicated.
(§3) In 32Dp210Bcr-Abl-e14a2, -e13a2 and 32Dp190Bcr-Abl-e1a2 inhibition of Bcr-Abl can be compensated by addition of exogenous growth factor to the medium. Therefor, recombinant murine IL-3, (1 ng/ml) was added to the growth medium during siRNA treatment of these cell lines. Following the last siRNA treatment cells were washed and factor deprived before starting the different examination procedures (Western blot/MTT).
We used three murine hematopoetic 32D cell lines expressing either p210Bcr-Abl (e14a2), p210Bcr-Abl (e13a2) or p190Bcr-Abl (e1a2) to study the effectiveness of siRNAs to silence each of these human Bcr-Abl fusion breakpoint variants. In addition, experiments were performed in human Ph+leukemia cells (K562, MEG-01). All siRNAs used were directed to breakpoints of the Bcr and Abl sequence of the respective Bcr-Abl mRNA. RNAi-efficiency was assayed via analysis of Bcr-Abl protein levels and by monitoring the biological effect using MTT viability assay.

32Dp210/e14a2 cells [1] = experiment: MTT viability assay in 32Dp210/e14a2 cells after siRNA electroporation; assay type: cell-based, murine; details: treated four times, MTT
Experimental: (§4) Survival Assay: Following the last siRNA treatment cells were seeded in 96 well plates and cultivated for another ˜48 hours. Cell survival was then measured by MTT assay as described (Van der Kuip H, et al., Blood. 2001, 98:1532)
as §2, §3

p210Bcr-Abl (e13a2) = experiment: Western blot of Bcr-Abl protein in 32Dp210/e13a2 cells; assay type: cell-based, murine; details: 32Dp210Bcr-Abl (e13a2) cells, repeated electroporation
Sequence of p210Bcr-Abl (e13a2) (P11274+P00519 fused): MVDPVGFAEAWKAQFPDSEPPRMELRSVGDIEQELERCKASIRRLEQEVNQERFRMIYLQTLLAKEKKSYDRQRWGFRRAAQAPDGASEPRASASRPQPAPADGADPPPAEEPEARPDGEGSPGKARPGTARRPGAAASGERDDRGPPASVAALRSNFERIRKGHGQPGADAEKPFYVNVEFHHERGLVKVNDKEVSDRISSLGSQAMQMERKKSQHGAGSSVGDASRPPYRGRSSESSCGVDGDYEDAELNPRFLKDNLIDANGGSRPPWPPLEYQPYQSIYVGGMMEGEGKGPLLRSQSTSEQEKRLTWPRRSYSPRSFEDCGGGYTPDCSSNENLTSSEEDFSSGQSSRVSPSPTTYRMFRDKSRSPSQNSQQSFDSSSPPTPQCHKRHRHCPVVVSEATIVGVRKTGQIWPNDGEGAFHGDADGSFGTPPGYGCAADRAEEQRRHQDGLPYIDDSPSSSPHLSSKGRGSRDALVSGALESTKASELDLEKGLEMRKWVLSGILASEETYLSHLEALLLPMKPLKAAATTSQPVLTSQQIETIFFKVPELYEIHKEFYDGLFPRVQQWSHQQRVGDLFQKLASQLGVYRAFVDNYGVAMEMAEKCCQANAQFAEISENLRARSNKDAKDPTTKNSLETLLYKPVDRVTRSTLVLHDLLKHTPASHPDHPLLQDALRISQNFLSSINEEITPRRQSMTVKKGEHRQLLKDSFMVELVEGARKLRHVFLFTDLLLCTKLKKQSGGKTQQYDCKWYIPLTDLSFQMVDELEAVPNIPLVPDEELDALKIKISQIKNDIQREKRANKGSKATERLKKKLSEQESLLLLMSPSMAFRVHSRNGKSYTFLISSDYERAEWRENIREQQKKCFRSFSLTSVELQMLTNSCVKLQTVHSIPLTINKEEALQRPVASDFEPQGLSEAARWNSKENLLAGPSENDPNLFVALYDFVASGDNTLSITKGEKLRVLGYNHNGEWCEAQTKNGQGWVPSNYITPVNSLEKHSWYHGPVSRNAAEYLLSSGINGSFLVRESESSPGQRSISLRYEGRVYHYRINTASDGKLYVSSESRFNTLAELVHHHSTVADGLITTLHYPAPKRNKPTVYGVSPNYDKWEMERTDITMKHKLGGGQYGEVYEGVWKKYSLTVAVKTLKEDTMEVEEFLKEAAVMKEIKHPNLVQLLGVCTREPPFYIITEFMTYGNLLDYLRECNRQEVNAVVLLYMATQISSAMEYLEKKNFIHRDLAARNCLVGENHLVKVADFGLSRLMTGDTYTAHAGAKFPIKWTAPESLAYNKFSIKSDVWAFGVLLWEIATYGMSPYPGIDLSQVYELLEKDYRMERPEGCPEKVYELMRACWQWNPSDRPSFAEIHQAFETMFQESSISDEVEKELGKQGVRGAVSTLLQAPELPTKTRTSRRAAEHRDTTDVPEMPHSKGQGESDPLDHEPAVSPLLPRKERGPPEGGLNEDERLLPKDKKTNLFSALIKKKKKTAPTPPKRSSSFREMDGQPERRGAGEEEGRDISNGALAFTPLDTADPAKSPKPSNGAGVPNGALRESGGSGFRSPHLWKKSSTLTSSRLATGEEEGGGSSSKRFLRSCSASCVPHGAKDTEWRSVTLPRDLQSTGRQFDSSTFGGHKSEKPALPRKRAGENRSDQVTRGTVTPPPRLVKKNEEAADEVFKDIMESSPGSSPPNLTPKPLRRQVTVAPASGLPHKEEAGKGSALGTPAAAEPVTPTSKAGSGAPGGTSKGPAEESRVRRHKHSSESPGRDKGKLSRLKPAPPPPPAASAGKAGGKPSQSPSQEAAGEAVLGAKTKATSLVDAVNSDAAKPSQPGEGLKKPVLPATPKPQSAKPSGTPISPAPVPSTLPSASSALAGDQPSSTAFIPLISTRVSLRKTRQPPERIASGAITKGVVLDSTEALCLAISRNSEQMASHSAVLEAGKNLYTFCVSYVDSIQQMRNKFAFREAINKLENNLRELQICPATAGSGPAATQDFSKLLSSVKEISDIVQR
Experimental: (§5) FIGS. 1A-1B: ˜2.5 Mio 32Dp210/e13a2 cells have been electroporated 1-3×at intervals of 24 h with the indicated siRNA. BAF3/BAF15/BAF17/BAF19: bcr-abl-e13a2-specific siRNAs; BAF9: bcr-abl-e14a2-specific siRNA, served as control; EPC: electroporation control. FIG. 1A: Western blot analysis of p210^Bcr-abl (e13a2) in 32Dp210/e13a2˜24 h following siRNA treatment; the level of GAPDH served as loading control. Lane 1: EPC, Lane 2: BAF9, Lane 3: BAF3, Lane 4: BAF15, Lane 5: BAF17, Lane 6: BAF19. […] Values are means +/− SD of triplicates.
as §1, §2, §3

32Dp210/e13a2 cells = experiment: MTT viability assay in 32Dp210/e13a2 cells; assay type: cell-based, murine; details: 32Dp210Bcr-Abl (e13a2) cells; for viability: repeated (up to three) treatments; for viability relative to controls (EPC): 48 h following 3rd treatment
Experimental: as §5, §4, §2, §3

32Dp210/e14a2 cells [2] = experiment: Total cell number 48 h after last siRNA treatment, 32Dp210/e14a2 cells; assay type: cell-based, murine; details: start 2.5 Mio cells
Experimental: as §2
In order to determine optimal conditions for RNA interference, we repeated the siRNA treatment one to four times at intervals of 24 hours. […] Despite its short duration, the effect was still sufficient to reduce the viability of cells to approximately 59% relative to control cells (EPC, 100%). […] The residual viability level of the cells treated four times with BAF7 measured in MTT assay was not more than ˜2.5% of the level of the control cells. Identical results were obtained when cell counts 48 hours following last treatment were used for assessment of the biological effect. Both mock-treated and cells treated with a mismatch siRNA still increased their cell number from 2.5 Mio cells to more than 25 Mio cells within 48 hours. […] The lower efficiency of BAF1 became even more obvious when the biological effect of BAF1 was assessed.

Bcr-Abl-e13a2 = experiment: Western blot of Bcr-Abl protein in MEG-01 cells; assay type: cell-based, human; details: treated three times, compared to mismatch control BAF28
Experimental: as §1, §2
(§6) All three major Bcr-Abl oncogene variants -e14a2, -e13a2 and -e1a2 can be targeted by RNA interference. To identify effective siRNAs for inhibition of the second major Bcr-Abl fusion gene relevant in CML, Bcr-Abl-e13a2, we treated 32Dp210Bcr-Abl (e13a2) cells with four siRNAs (BAF3, BAF15, BAF17, BAF19) targeting different sequences of the Bcr-Able13a2 mRNA breakpoint. As a control we used a siRNA directed to the Bcr-Abl-e14a2 fusion sequence (BAF9). […] Despite the considerable overlap in their target sequence, BAF17 and BAF3 had no effect Bcr-Abl protein levels. […]

MEG-01 cells = experiment: MTT viability assay in MEG-01 cells; assay type: cell-based, human; details: treated three times
Experimental: as §4, §2, §6

p190Bcr-Abl (e1a2) = experiment: Western blot of Bcr-Abl protein in 32Dp190/e1a2 cells; assay type: cell-based, murine; details: 32Dp190Bcr-Abl (e1a2) cells, treated twice at intervals of 24 h
Experimental: (§7) FIGS. 2A-2B: ˜5 Mio 32Dp190/e1a2 cells have been electroporated twice at intervals of 24 h with the indicated siRNA. BAF22/BAF24: bcr-abl-e1a2-specific siRNAs; BAF9: bcr-abl-e14a2-specific siRNA, served as control; BAF19: bcr-abl-e13a2-specific siRNA, served as control; EPC: electroporation control. FIG. 2A: Western blot analysis of p190^Bcr-abl (e1a2) in 32Dp190/e1a2 cells about 24 h following second siRNA treatment; the level of GAPDH served as loading control. Lane 1: EPC, Lane 2: BAF9, Lane 3: BAF19, Lane 4: BAF22, Lane 5: BAF24. […] Values are means +/− SD of triplicates.
as §1
as §2, with “indicated. […]” for “indicated.”

32Dp190/e1a2 cells = experiment: MTT viability assay in 32Dp190/e1a2 cells; assay type: cell-based, murine
Experimental: as §7
[…] Cell survival was then measured by MTT assay as described (Van der Kuip H, et al., Blood. 2001, 98:1532)
as §2
In 32Dp210Bcr-Abl-e14a2, -e13a2 and 32Dp190Bcr-Abl-e1a2 inhibition of Bcr-Abl can be compensated by addition of exogenous growth factor to the medium. […]

p190Bcr-Abl = experiment: Western blot of p190Bcr-Abl in SUP-B15 cells; assay type: cell-based, human; details: 3 treatments at intervals of 24 hours, compared to EPC or BAF19 control
Experimental: FIG. 3: Cells from the human B cell precursor leukemia cell line SUP-B15 (ACC 389; DSMZ, Braunschweig, breakpoint variant e1a2) were treated as described for […] with an e1a2-specific siRNA (BAF22) or with siRNA directed to another breakpoint variant (BAF19, specific for e13a2) as a control.
as §2
SUP-B15 cells were treated by electroporation as described above with an e1a2-specific siRNA (BAF22) or with siRNA directed to another breakpoint variant (BAF19) as a control.

Cc1ccc(NC(=O)c2ccc(CN3CCN(C)CC3)cc2)cc1Nc1nccc(-c2cccnc2)n1 [imatinib mesylate, Imatinib mesylate]
loss of sensitivity to imatinib mesylate compared to 32Dp210-wt (32Dp210-H396P cells): ~4.7 fold
resistance to imatinib mesylate (32Dp210-T315I cells): complete resistance
cells undergoing apoptosis (K562 cells): 8%

BAF1: siRNA duplex, SEQ ID No. 7/8, single mismatch compared to BAF7 (chain 1 CAGAGUUGAAAAGCCCUUCAG; chain 2 CUGAAGGGCUUUUCAACUCUGCU; listed as RNA, chemistry not given here) [reference compound]
down-regulation of Bcr-Abl protein levels compared to BAF7 (p210Bcr-Abl (e14a2)): less efficient down-regulation
viability relative to EPC (32Dp210/e14a2 cells [1]): 52%

BAF3: siRNA duplex, SEQ ID No. 9/10, specific for Bcr-Abl-e13a2 (chain 1 UAAGGAAGAAGCCCUUCAGCG; chain 2 CGCUGAAGGGCUUCUUCCUUAUU; listed as RNA, chemistry not given here)
Bcr-Abl protein levels (p210Bcr-Abl (e13a2)): completely ineffective; also recorded: no effect
viability (32Dp210/e13a2 cells): did also not interfere with the viability

BAF8: siRNA duplex, SEQ ID No. 3/4, Bcr-Abl-e14a2, mismatch control to BAF7 (three mismatches) (chain 1 CAGUGUUCAUAAGCCGUUCAG; chain 2 CUGAACGGCUUAUGAACACUGCU; chemistry not given here)
total cell number 48 h following last treatment (32Dp210/e14a2 cells [2]): more than 25 Mio cells

BAF15: siRNA duplex, SEQ ID No. 11/25, specific for Bcr-Abl-e13a2 (chain 1 AAUAAGGAAGAAGCCCUUCAG; chain 2 CUGAAGGGCUUCUUCCUUAUUGA; listed as RNA, chemistry not given here)
Bcr-Abl protein levels (p210Bcr-Abl (e13a2)): effective down-regulation
viability relative to controls (EPC) (32Dp210/e13a2 cells): ~10%
viability (32Dp210/e13a2 cells): almost complete loss of viability; also recorded: reduction of viability

BAF17: siRNA duplex, SEQ ID No. 13/26, specific for Bcr-Abl-e13a2 (chain 1 GGAAGAAGCCCUUCAGCGGCC; chain 2 GGCCGCUGAAGGGCUUCUUCCUU; listed as RNA, chemistry not given here)
Bcr-Abl protein levels (p210Bcr-Abl (e13a2)): no effect
viability (32Dp210/e13a2 cells): did also not interfere with the viability

BAF19: siRNA duplex, SEQ ID No. 15/27, specific for Bcr-Abl-e13a2 (chain 1 AUCAAUAAGGAAGAAGCCCUU; chain 2 AAGGGCUUCUUCCUUAUUGAUGG; listed as RNA, chemistry not given here)
Bcr-Abl protein levels (p210Bcr-Abl (e13a2)): effective down-regulation
viability relative to controls (EPC) (32Dp210/e13a2 cells): ~14%
viability (32Dp210/e13a2 cells): almost complete loss of viability; also recorded: reduction of viability
Bcr-Abl protein levels / Bcr-Abl-e13a2 expression (Bcr-Abl-e13a2): effectively silenced Bcr-Abl-e13a2 expression; also recorded: significant loss of Bcr-Abl protein levels
viability compared to control cells (EPC, 100%) (MEG-01 cells): ~28%

BAF22: siRNA duplex, SEQ ID No. 19/28, specific for Bcr-Abl-e1a2 (chain 1 GGAGACGCAGAAGCCCUUCAG; chain 2 CUGAAGGGCUUCUGCGUCUCCAU; listed as RNA, chemistry not given here)
Bcr-Abl protein levels / Bcr-Abl-e1a2 gene expression (p190Bcr-Abl (e1a2)): actively silenced Bcr-Abl-e1a2 gene expression; also recorded: significant down-regulation
viability (32Dp190/e1a2 cells; 32Dp190/e1a2 cells, repeated treatment, ~40 h after second treatment): reduction of viability
viability compared to EPC (100%) (32Dp190/e1a2 cells; 32Dp190Bcr-Abl (e1a2) cells, after 2nd treatment): 15%
p190Bcr-Abl protein levels / Bcr-Abl-e1a2 expression (p190Bcr-Abl): effectively silenced Bcr-Abl-e1a2 expression; also recorded: significantly reduced

BAF24: siRNA duplex, SEQ ID No. 21/22, specific for Bcr-Abl-e1a2 (chain 1 GACGCAGAAGCCCUUCAGCGG; chain 2 CCGCUGAAGGGCUUCUGCGUCUC; listed as RNA, chemistry not given here)
Bcr-Abl protein levels / Bcr-Abl-e1a2 gene expression (p190Bcr-Abl (e1a2)): no effect at all
